Tests used:
[1] = test system: sebum secretion; experiment: Inhibition of testosterone propionate-stimulated sebum secretion in castrated male rats (Table I); assay type: in vivo; details: for Mean ± S.E. "Sebum" / % Inhibition of testosterone-stimulated increase in "sebum": 14 days
Experimental: The effect of the (E) form of the compound of formula I on sebum secretion in mammals, such as rats, was determined according to the following procedure. Male rats weighing about 50-60 g. were castrated at the age of 21-22 days. One week after surgery, the rats were washed in a detergent solution to remove "sebum" which was secreted prior to the test period. One group of rats were treated only with the carrier vehicles employed. Another group of rats received only testosterone propionate in sesame oil, 100 ug/0.2 ml/rat/day […]. Other groups of rats were given testosterone propionate in sesame oil (100 ug/0.2 ml/rat/day subcutaneously) and 1,2,3,4-tetrahydro-1,1,4,4-tetramethyl-6-[(E)-α-methylstyryl]naphthalene, with different amounts of 1,2,3,4-tetrahydro-1,1,4,4-tetramethyl-6[(E)-α-methylstyryl]naphthalene being administered to each of the other groups orally in 0.2 ml/rat/day propylene glycol. The rats were treated with the compounds for 14 days. On the 15th day total body immersion in a fixed volume of acetone with mixing for two minutes removed surface "sebum" from skin and fur. An aliquot of the solvent bath was dried and the solid residue was measured gravimetrically. Inhibition of the testosterone-stimulated increase in "sebum" over solely testosterone propionate stimulated rats was used as the parameter of response.

[2] = test system: sebaceous glands (flank organs); experiment: Inhibition of testosterone propionate-stimulated flank organ weight increase in castrated male hamsters (Table II); assay type: in vivo
Experimental: The effect of the (E) form of the compound of formula I on sebaceous glands in mammals was further determined using hamsters, according to the following procedure. […] Animals were treated for 14 days and the response was measured by weight changes in flank organs removed at autopsy. Separate groups of hamsters served as vehicle controls and testosterone alone groups. Activity was measured by inhibition of the increase in weight which occurs in response to stimulation with testosterone propionate.

[3] = test system: abdominal sebaceous gland pad organs; experiment: Inhibition of testosterone-stimulated abdominal sebaceous gland pad weight increase in castrated male gerbils (Table III); assay type: in vivo
Experimental: The effect of the (E) form of the compound of formula I on sebaceous glands in mammals was further determined using gerbils, according to the following procedure. Male gerbils were castrated at 8 weeks of age and one week after surgery were treated with 5 ug free testosterone and 1,2,3,4-tetrahydro-1,1,4,4-tetramethyl-6-[(E)-α-methylstyryl]naphthalene topically in acetone on the abdominal sebaceous gland pad organs. Animals were treated for 14 days and the response was measured by weight changes in these organs removed at autopsy. Separate groups of gerbils served as vehicle controls and testosterone alone groups. Activity was measured by inhibition of the increase in weight which occurs in response to stimulation with testosterone.

[4] = Hypervitaminosis A test; parameters: species or system mice; details: mouse, in vivo
Experimental: A hypervitaminosis A test was carried out on mice weighing 25-27 g. which received i.p. injections of 1,2,3,4-tetrahydro-1,1,4,4-tetramethyl-6-[(E)-α-methylstyryl]naphthalene in arachis oil over a 14 day period. Hypervitaminosis A is defined as being that condition of the animals where the symptoms (weight loss, skin desquamtion, loss of hair, bone fractures of extremities) added up to at least 3, c.f. W. Bollag, Cancer, 1974, 10, 731.

[5] = Teratogenicity tests, for fetal abnormalities; assay type: in vivo, Charles River CD rats; details: 10, 50 or 150 mg/kg daily orally, gestation days 8 and 9
Experimental: In order to further determine the safety of the (E) form of the compound of formula I teratogenicity tests, for fetal abnormalities, were carried out in rats according to the following procedure. 1,2,3,4-tetrahydro-1,1,4,4-tetramethyl-6-[(E)-α-methylstyryl]naphthalene was provided to Charles River CD rats on gestation days 8 and 9 using a daily dose of 10 , 50 or 150 mg/kg of this substance dissolved or suspended in a polyethelene glycol formulation containing traces of antioxidants (ascorbyl palmitate and butylated hydroxyanisole). The compound was administered orally at a constant volume of 5 ml/kg. The rats were then sacrificed on gestation day 20 and examined.

[6] = Skin irritation, topical application to the ears; assay type: in vivo, Charles River CD-1 mice; details: topically in 25 μl/day acetone, doses up to 100 μg/day, 7 consecutive days
Experimental: 1,2,3,4-tetrahydro-1,1,4,4-tetramethyl-6-[(E)-α-methylstyryl]naphthalene was applied topically to the ears of 21-day-old male Charles River CD-1 mice for 7 consecutive days in 25 μl/day acetone. During treatment mice are observed for development of erythema on the ears, and uniform skin punches are taken at autopsy on day 8. Wet and dry weights of the skin samples were determined and compared to weights from vehicle-treated control animals. Increases in fluid content of the skin punches served as a measure of edema when irritation and inflammation had occurred.

[7] = General tolerability statement; assay type: in vivo; details: pharmacologically suitable dosages
[8] = test system: papilloma; details: cited from earlier work

With `C/C(=C\c1ccccc1)c1ccc2c(c1)C(C)(C)CCC2(C)C` [1,2,3,4-tetrahydro-1,1,4,4-tetramethyl-6-[(E)-α-methylstyryl]naphthalene] the “Mean ± S.E. "Sebum"” value ([1]; 0.5 ug/rat/day p.o. + T.P. 100 ug/rat/day s.c., 8 rats, NS vs T.P. alone) was 25.1 ± 1.9 ug/100 ul, the “Mean ± S.E. "Sebum"” value ([1]; 1 ug/rat/day p.o. + T.P. 100 ug/rat/day s.c., 8 rats, NS vs T.P. alone) was 26.8 ± 1.6 ug/100 ul and the “Mean ± S.E. "Sebum"” value ([1]; 2 ug/rat/day p.o. + T.P. 100 ug/rat/day s.c., 8 rats, NS vs T.P. alone) was 22.1 ± 1.2 ug/100 ul. For the same compound, the “Mean ± S.E. "Sebum"” value ([1]; 4 ug/rat/day p.o. + T.P. 100 ug/rat/day s.c., 8 rats, NS vs T.P. alone) was 21.6 ± 1.6 ug/100 ul, the “% Inhibition of testosterone-stimulated increase in "sebum"” value ([1]; 10 ug/rat/day p.o. + T.P. 100 ug/rat/day s.c.) was 61% and the “Mean ± S.E. "Sebum"” value ([1]; 10 ug/rat/day p.o. + T.P. 100 ug/rat/day s.c., 9 rats, p<.01 vs T.P. alone) was 23.4 ± 1.6 ug/100 ul. The “% Inhibition of testosterone-stimulated increase in "sebum"” value ([1]; 20 ug/rat/day p.o. + T.P. 100 ug/rat/day s.c.) was 70%, the “Mean ± S.E. "Sebum"” value ([1]; 20 ug/rat/day p.o. + T.P. 100 ug/rat/day s.c., 9 rats, p<.01 vs T.P. alone) was 22.4 ± 1.6 ug/100 ul and the “% Inhibition of testosterone-stimulated increase in "sebum"” value ([1]; 40 ug/rat/day p.o. + T.P. 100 ug/rat/day s.c.) was 73%. For the same compound, the “Mean ± S.E. "Sebum"” value ([1]; 40 ug/rat/day p.o. + T.P. 100 ug/rat/day s.c., 9 rats, p<.001 vs T.P. alone) was 22.1 ± 0.9 ug/100 ul, the “% Inhibition of testosterone-stimulated increase in "sebum"” value ([1]; 100 ug/rat/day p.o. + T.P. 100 ug/rat/day s.c.) was 93% and the “Mean ± S.E. "Sebum"” value ([1]; 100 ug/rat/day p.o. + T.P. 100 ug/rat/day s.c., 9 rats, p<.001 vs T.P. alone) was 19.9 ± 1.2 ug/100 ul. For the same compound, the “sebum secretion (in words)” value ([1]; 100 ug/rat/day p.o. + T.P. 100 ug/rat/day s.c., compared to T.P. alone) was “decreased to virtually normal level”, the “% Inhibition of testosterone-stimulated increase in flank organ weight” value ([2]; 0.5 μg topically + T.P. 5 ug, 14 days, 9 hamsters) was 38% and the “Mean ± S.E. Flank Organ” value ([2]; 0.5 μg topically + T.P. 5 ug, 14 days, 9 hamsters, p<.001 vs T.P. alone) was 26.0 ± 1.6 mg. For the same compound, the “inhibition of flank organ weight increase” value ([2]; 0.5 ug/animal/day topically with 5 μg T.P., vs testosterone alone) was ~38%, the “% Inhibition of testosterone-stimulated increase in sebaceous gland pad weight” value ([3]; 1 ug topically + testosterone 5 ug, 14 days, 10 gerbils) was 54% and the “Mean ± S.E. Sebaceous Gland Pad” value ([3]; 1 ug topically + testosterone 5 ug, 14 days, 10 gerbils, p<.01 vs testosterone alone) was 45.6 ± 6.9 mg. The “inhibition of sebaceous gland pad weight” value ([3]; 1.0 ug/animal/day p.o. (so in the source) with 5 ug testosterone topically, vs testosterone alone) was ~54%, the “undesired side effects such as hypervitaminosis” value [4] was “no undesired side effects such as hypervitaminosis” and the NOAEL at 336 h ([4]; ip, i.p. in arachis oil, 14 day period, hypervitaminosis A = symptoms adding up to at least 3, read-out: dosage not resulting in hypervitaminosis A (tested up to)) was > 400 mg/kg. The external malformations ([5]; 187 fetuses) was “no external malformations were recorded in any of the 187 fetuses”, the absorption rate ([5]; examined day 20) was “no adverse effects” and the fetal weight ([5]; examined day 20) was “no adverse effects”. For the same compound, the maternal body weights ([5]; examined day 20) was “no adverse effects”, the “adverse effects (skin irritation: erythema, edema of ear skin punches)” value [6] was “not to have adverse effects” and the tolerability [7] was “well tolerated without toxic symptoms”. The “effect on papilloma growth” value ([8]; Loeliger et al., Eur. J. Med. Chem., 15, 9 (1980)) was “no effect on papilloma growth” and the papilloma size ([8]; after intraperitoneal administration, Loeliger et al. (1980)) was “increase in papilloma size”.

With `CCC(=O)O[C@H]1CC[C@H]2[C@@H]3CCC4=CC(=O)CC[C@]4(C)[C@H]3CC[C@]12C` [T.P., testosterone propionate, reference compound] the “Mean ± S.E. "Sebum"” value ([1]; 100 ug/rat/day s.c. T.P. alone (0 ug compound), 8 rats, first experiment) was 25.1 ± 1.4 ug/100 ul, the “Mean ± S.E. "Sebum"” value ([1]; 100 ug/rat/day s.c. T.P. alone (0 ug compound), 9 rats, second experiment) was 30.1 ± 1.0 ug/100 ul and the “Mean ± S.E. Flank Organ” value ([2]; T.P. alone, 5 ug, 14 days, 8 hamsters) was 33.8 ± 2.0 mg.

With `C[C@]12CC[C@H]3[C@@H](CCC4=CC(=O)CC[C@@]43C)[C@@H]1CC[C@@H]2O` [Testosterone, testosterone, reference compound] the “Mean ± S.E. Sebaceous Gland Pad” value ([3]; Testosterone alone, 5 ug, 14 days, 10 gerbils) was 72.5 ± 5.8 mg.
